Data on 21 compounds can be found in patent US8592383B2, “Cycloalkyl-fused tetrahydroquinolines as CRTH2 receptor modulators” (Merck Sharp & Dohme Corp., priority 2011, dated 2013).

The first experiment has as its target T1, hCRTH2 (Homo sapiens, UniProt Q9Y5Y4).
T1 sequence (Q9Y5Y4 1-395): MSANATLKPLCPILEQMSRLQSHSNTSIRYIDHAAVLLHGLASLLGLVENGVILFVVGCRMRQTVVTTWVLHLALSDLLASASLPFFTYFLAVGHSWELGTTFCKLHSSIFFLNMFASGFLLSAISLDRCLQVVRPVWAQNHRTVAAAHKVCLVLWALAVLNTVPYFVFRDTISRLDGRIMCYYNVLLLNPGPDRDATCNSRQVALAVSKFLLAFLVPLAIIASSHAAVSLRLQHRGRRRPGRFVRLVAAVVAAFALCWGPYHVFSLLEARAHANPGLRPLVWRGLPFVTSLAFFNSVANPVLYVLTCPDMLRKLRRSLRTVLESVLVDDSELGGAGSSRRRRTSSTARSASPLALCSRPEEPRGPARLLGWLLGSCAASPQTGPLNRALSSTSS
Also on record: expressed in transfected cells; host or cells: HEK (human embryonic kidney) cells expressing hCRTH2. Conditions: Radioligand Binding Assay B; 0.7 nM [3H]PGD2, HEK-hCRTH2 membranes. The method, then:
The filters were then washed with 4 mL of the same buffer and residual radioligand bound to the filter was determined by liquid scintillation counting following equilibration in 25 μl Ultima Gold F™ (Unifilter) (Packard).
Take `CCN(C(=O)CCC(=O)O)C1c2ccccc2N(C(=O)c2cccnc2)C2CCCC12` (racemic) [13E, 4-{ethyl[cis,cis-4-(pyridin-3-ylcarbonyl)-2,3,3a,4,9,9a-hexahydro-1H-cyclopenta[b]quinolin-9-yl]amino}-4-oxobutanoic acid]: the Ki is 123 nM.
For the compound `O=C(O)CCC(=O)N(C1CC1)C1c2ccccc2N(C(=O)c2ccsc2)C2CCCC21` (racemic) [14E, 4-{cyclopropyl[cis,cis-4-(thiophen-3-ylcarbonyl)-2,3,3a,4,9,9a-hexahydro-1H-cyclopenta[b]quinolin-9-yl]amino}-4-oxobutanoic acid], the Ki was found to be 9.9 nM.
`O=C(O)CCC(=O)N(C1CC1)C1c2ccccc2N(C(=O)c2ccc(Cl)cc2)C2CCCC21` (racemic) [14K, 4-[{cis,cis-4-[(4-chlorophenyl)carbonyl]-2,3,3a,4,9,9a-hexahydro-1H-cyclopenta[b]quinolin-9-yl}(cyclopropyl)amino]-4-oxobutanoic acid] came in with a Ki of 18.4 nM.
Turning to `COC(=O)CCC(=O)N(C1CC1)C1c2ccccc2N(C(=O)c2ccc(Cl)cc2)C2CCCC21` (racemic) [14P, methyl 4-[{cis,cis-4-[(4-chlorophenyl)carbonyl]-2,3,3a,4,9,9a-hexahydro-1H-cyclopenta[b]quinolin-9-yl}(cyclopropyl)amino]-4-oxobutanoate], the Ki came to 414 nM.

The experiment is the same for the next values; noted with them: Radioligand Binding Assay B; Table B, rated A-D.
The compound “4-{cyclopropyl[cis,cis-6-fluoro-4- (phenylcarbonyl)-2,3,3a,4,9,9a- hexahydro-1H- cyclopenta[b]quinolin-9-yl]amino}- 4-oxobutanoic acid [16D]” registered a Ki of 20.1 to 200 nM.
With `COC(=O)CCC(=O)N(c1ccccc1)C1c2ccccc2N(C(=O)c2cccnc2)C2CCCC21` (racemic) [12B, methyl 4-oxo-4-{phenyl[cis, cis-4-(pyridin-3-ylcarbonyl)-2,3,3a,4,9,9a-hexahydro-1H-cyclopenta[b]quinolin-9-yl]amino}butanoate], the Ki lay within 20.1 to 200 nM.
`O=C(O)CCC(=O)N(c1ccccc1)C1c2ccccc2N(C(=O)OCc2ccccc2)C2CCCC21` (racemic) [12C, 4-[{cis,cis-4-[(benzyloxy)carbonyl]-2,3,3a,4,9,9a-hexahydro-1H-cyclopenta[b]quinolin-9-yl}(phenyl)amino]-4-oxobutanoic acid] yielded a Ki of 5.1 to 20 nM.
The same measure, in the same setting: the value for `O=C(O)CCC(=O)N(c1ccccc1)C1c2ccccc2N(C(=O)c2cccnc2)C2CCCC21` (racemic) [12D, 4-oxo-4-{phenyl[cis,cis-4-(pyridin-3-ylcarbonyl)-2,3,3a,4,9,9a-hexahydro-1H-cyclopenta[b]quinolin-9-yl]amino}butanoic acid] was 5.1 to 20 nM.
Still for that read-out and setting: with `O=C(O)CCC(=O)N(c1ccccc1)C1c2ccccc2N(C(=O)c2ccccc2)C2CCCC21` (racemic) [12E, 4-oxo-4-{phenyl[cis,cis-4-(phenylcarbonyl)-2,3,3a,4,9,9a-hexahydro-1H-cyclopenta[b]quinolin-9-yl]amino}butanoic acid] the figure was 5.1 to 20 nM.
Compound `CCN(C(=O)CCC(=O)O)C1c2ccccc2N(C(=O)c2ccc(OC(F)(F)F)cc2)C2CCCC12` (racemic) [13C, 4-{ethyl [cis,cis-4-{[4-(trifluoromethoxy)phenyl]carbonyl}-2,3,3a,4,9,9a-hexahydro-1H-cyclopenta[b]quinolin-9-yl]amino}-4-oxobutanoic acid] showed a Ki of 5.1 to 20 nM.
Turning to `CCN(C(=O)CCC(=O)O)C1c2ccccc2N(C(=O)c2ccccc2)C2CCCC12` (racemic) [13D, 4-{ethyl[cis,cis-4-(phenylcarbonyl)-2,3,3a,4,9,9a-hexahydro-1H-cyclopenta[b]quinolin-9-yl]amino}-4-oxobutanoic acid], the Ki was 5.1 to 20 nM.
Consider `CCN(C(=O)CCC(=O)O)C1c2ccccc2N(C(=O)c2cccnc2)C2CCCC12` (racemic) [13E, 4-{ethyl[cis,cis-4-(pyridin-3-ylcarbonyl)-2,3,3a,4,9,9a-hexahydro-1H-cyclopenta[b]quinolin-9-yl]amino}-4-oxobutanoic acid], for which the Ki is 20.1 to 200 nM.
In turn, `O=C(O)CCC(=O)N(C1CC1)C1c2ccccc2N(C(=O)c2ccc(OC(F)(F)F)cc2)C2CCCC21` (racemic) [14C, 4-{cyclopropyl[cis,cis-4-{[4-(trifluoromethoxy)phenyl]carbon-yl}-2,3,3a,4,9,9a-hexahydro-1H-cyclopenta[b]quinolin-9-yl]amino}-4-oxobutanoic acid] came in with a Ki of 5.1 to 20 nM.
The compound `Cn1c(C(=O)N2c3ccccc3C(N(C(=O)CCC(=O)O)C3CC3)C3CCCC32)cc2ccccc21` (racemic) [14D, 4-(cyclopropyl{cis,cis-4-[(1-methyl-1H-indol-2-yl)carbonyl]-2,3,3a,4,9,9a-hexahydro-1H-cyclopenta[b]quinolin-9-yl}amino)-4-oxobutanoic acid] came in with an inhibition constant (Ki) of 5.1 to 20 nM.
Take `O=C(O)CCC(=O)N(C1CC1)C1c2ccccc2N(C(=O)c2ccsc2)C2CCCC21` (racemic) [14E, 4-{cyclopropyl[cis,cis-4-(thiophen-3-ylcarbonyl)-2,3,3a,4,9,9a-hexahydro-1H-cyclopenta[b]quinolin-9-yl]amino}-4-oxobutanoic acid]: the Ki was in the range of 5.1 to 20 nM.
Still for that read-out and setting: with `O=C(O)CCC(=O)N(C1CC1)C1c2ccccc2N(C(=O)c2ccc(Br)cc2)C2CCCC21` (racemic) [14F, 4-[{cis,cis-4-[(4-bromophenyl)carbonyl]-2,3,3a,4,9,9a-hexahydro-1H-cyclopenta[b]quinolin-9-yl}(cyclopropyl)amino]-4-oxobutanoic acid] the figure was 5.1 to 20 nM; with `O=C(O)CCC(=O)N(C1CC1)C1c2ccccc2N(C(=O)C2CC2)C2CCCC21` (racemic) [14G, 4-{cyclopropyl[cis,cis-4-(cyclopropylcarbonyl)-2,3,3a,4,9,9a-hexahydro-1H-cyclopenta[b]quinolin-9-yl]amino}-4-oxobutanoic acid], 20.1 to 200 nM; with `O=C(O)CCC(=O)N(C1CC1)C1c2ccccc2N(C(=O)c2cccc(N3CCOCC3)c2)C2CCCC21` (racemic) [14H, 4-(cyclopropyl{cis,cis-4-[(3-morpholin-4-ylphenyl)carbonyl]-2,3,3a,4,9,9a-hexahydro-1H-cyclopenta[b]quinolin-9-yl}amino)-4-oxobutanoic acid], 20.1 to 200 nM.
As to `O=C(O)CCC(=O)N(C1CC1)C1c2ccccc2N(C(=O)c2ccc(Cl)cc2)C2CCCC21` (racemic) [14K, 4-[{cis,cis-4-[(4-chlorophenyl)carbonyl]-2,3,3a,4,9,9a-hexahydro-1H-cyclopenta[b]quinolin-9-yl}(cyclopropyl)amino]-4-oxobutanoic acid], the Ki was 5.1 to 20 nM.
Still for that read-out and setting: the value for `COc1ccc(C(=O)N2c3ccccc3C(N(C(=O)CCC(=O)O)C3CC3)C3CCCC32)cc1` (racemic) [14L, 4-(cyclopropyl{cis,cis-4-[(4-methoxyphenyl)carbonyl]-2,3,3a,4,9,9a-hexahydro-1H-cyclopenta[b]quinolin-9-yl}amino)-4-oxobutanoic acid] was 20.1 to 200 nM; that for `COC(=O)CCC(=O)N(C1CC1)C1c2ccccc2N(C(=O)c2cc3ccccc3n2C)C2CCCC21` (racemic) [14N, methyl 4-(cyclopropyl{cis,cis-4-[(1-methyl-1H-indol-2-yl)carbonyl]-2,3,3a,4,9,9a-hexahydro-1H-cyclopenta[b]quinolin-9-yl}amino)-4-oxobutanoate] was 201 to 7500 nM; that for `COC(=O)CCC(=O)N(C1CC1)C1c2ccccc2N(C(=O)c2ccc(Cl)cc2)C2CCCC21` (racemic) [14P, methyl 4-[{cis,cis-4-[(4-chlorophenyl)carbonyl]-2,3,3a,4,9,9a-hexahydro-1H-cyclopenta[b]quinolin-9-yl}(cyclopropyl)amino]-4-oxobutanoate] was 201 to 7500 nM.
In turn, `O=C(O)CCC(=O)N(C1CC1)C1c2ccccc2N(C(=O)c2cccnc2)C2CCCC21` (racemic) [14i, 4-{cyclopropyl[cis,cis-4-(pyridin-3-ylcarbonyl)-2,3,3a,4,9,9a-hexahydro-1H-cyclopenta[b]quinolin-9-yl]amino}-4-oxobutanoic acid] gave a Ki of 20.1 to 200 nM.
On the same count and under the same terms, with `COC(=O)CCC(=O)N(C1CC1)C1c2ccccc2N(C(=O)c2ccsc2)C2CCCC21` (racemic) [14o, methyl 4-{cyclopropyl[cis,cis-4-(thiophen-3-ylcarbonyl)-2,3,3a,4,9,9a-hexahydro-1H-cyclopenta[b]quinolin-9-yl]amino}-4-oxobutanoate] the figure was 201 to 7500 nM; with `COC(=O)CCC(=O)N(C1CC1)C1c2ccc(F)cc2N(C(=O)c2cccnc2)C2CCCC21` (racemic) [16A, Methyl 4-{cyclopropyl[cis,cis-6-fluoro-4-(pyridin-3-ylcarbonyl)-2,3,3a,4,9,9a-hexahydro-1H-cyclopenta[b]quinolin-9-yl]amino}-4-oxobutanoate], 201 to 7500 nM.
